Data: ChEMBL document CHEMBL3286148, “Aminoazabenzimidazoles, a novel class of orally active antimalarial agents” (J Med Chem, 2014)
Values after ≈ are worked out from the molar mass of the structure shown.

Legend:
[1] = Cmax in Plasmodium falciparum 3D70087/N9 infected NODscidIL2Rgamma-null mouse at 50 mg/kg, po by LC-MS/MS analysis; assay type: ADME, organism-based; design: dose 50 mg/kg, route oral; conditions: in vivo
[2] = Clearance in rat hepatocytes assessed per 1E6 cells; assay type: ADME, cell-based, Hepatocyte; conditions: read-out: CLH
[3] = Clearance in human liver microsomes; assay type: ADME; conditions: read-out: CLH
Cytochrome P450 2C19 = Cytochrome P450 2C19 (Homo sapiens, UniProt P33261); assay: Inhibition of CYP2C19 (unknown origin); assay type: ADME
Chain of Cytochrome P450 2C19 (P33261 whole entry): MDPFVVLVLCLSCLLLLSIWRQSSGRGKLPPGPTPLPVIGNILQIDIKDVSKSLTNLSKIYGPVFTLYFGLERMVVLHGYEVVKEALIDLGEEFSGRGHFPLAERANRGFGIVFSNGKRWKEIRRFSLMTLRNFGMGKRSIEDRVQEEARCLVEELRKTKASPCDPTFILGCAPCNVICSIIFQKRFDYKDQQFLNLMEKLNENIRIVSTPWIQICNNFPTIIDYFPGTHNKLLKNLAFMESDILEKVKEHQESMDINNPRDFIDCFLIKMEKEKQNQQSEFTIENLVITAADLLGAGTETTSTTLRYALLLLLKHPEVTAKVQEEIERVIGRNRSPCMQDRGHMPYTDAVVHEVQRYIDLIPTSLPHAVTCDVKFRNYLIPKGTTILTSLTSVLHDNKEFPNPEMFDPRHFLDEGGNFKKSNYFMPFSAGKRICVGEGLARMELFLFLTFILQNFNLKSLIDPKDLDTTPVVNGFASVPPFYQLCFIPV

[4] = AUC (0 to 23 hrs) in Plasmodium falciparum 3D70087/N9 infected NODscidIL2Rgamma-null mouse at 50 mg/kg, po by LC-MS/MS analysis; assay type: ADME, organism-based; design: time < 23 hr, dose 50 mg/kg, route oral; conditions: plasma
Mus musculus [5] = assay: AUC (0 to 23 hrs) in Plasmodium falciparum 3D70087/N9 infected NODscidIL2Rgamma-null mouse at 10 mg/kg, po by LC-MS/MS analysis; conditions: in vivo
Cytochrome P450 2C9 = Cytochrome P450 2C9 (Homo sapiens, UniProt P11712); assay: Inhibition of CYP2C9 (unknown origin); assay type: ADME
Chain of Cytochrome P450 2C9 (P11712 whole entry): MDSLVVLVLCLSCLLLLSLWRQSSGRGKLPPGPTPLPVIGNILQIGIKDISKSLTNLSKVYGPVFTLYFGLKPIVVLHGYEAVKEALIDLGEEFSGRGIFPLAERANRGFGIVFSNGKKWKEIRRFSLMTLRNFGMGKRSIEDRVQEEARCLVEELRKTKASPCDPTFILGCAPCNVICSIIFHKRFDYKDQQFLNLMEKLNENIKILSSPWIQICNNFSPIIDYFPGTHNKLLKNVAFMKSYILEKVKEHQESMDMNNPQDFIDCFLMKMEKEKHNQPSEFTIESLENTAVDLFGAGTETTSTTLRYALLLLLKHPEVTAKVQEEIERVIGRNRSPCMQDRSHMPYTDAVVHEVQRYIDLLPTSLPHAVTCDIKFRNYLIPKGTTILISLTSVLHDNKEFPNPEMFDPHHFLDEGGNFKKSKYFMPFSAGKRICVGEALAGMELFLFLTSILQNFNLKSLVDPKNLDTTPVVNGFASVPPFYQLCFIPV

Plasmodium berghei [6] = assay: Antiplasmodial activity against Plasmodium berghei ANKA expressing GFP infected in BALB/c mouse assessed as host survival days at 50 mg/kg, po qd for 4 days; assay type: functional
Mus musculus [7] = assay: Dose normalized Cmax in Plasmodium falciparum 3D70087/N9 infected NODscidIL2Rgamma-null mouse at 50 mg/kg, po by LC-MS/MS analysis; assay type: ADME, organism-based; design: dose 50 mg/kg, route oral; conditions: in vivo
[8] = Tmax in Plasmodium falciparum 3D70087/N9 infected NODscidIL2Rgamma-null mouse at 3 mg/kg, po by LC-MS/MS analysis; assay type: ADME, organism-based; design: dose 3 mg/kg, route oral; conditions: in vivo
Cytochrome P450 1A2 = target: T1, Cytochrome P450 1A2 (Homo sapiens, UniProt P05177); assay: Inhibition of CYP1A2 (unknown origin); assay type: ADME
T1 sequence (P05177 whole entry): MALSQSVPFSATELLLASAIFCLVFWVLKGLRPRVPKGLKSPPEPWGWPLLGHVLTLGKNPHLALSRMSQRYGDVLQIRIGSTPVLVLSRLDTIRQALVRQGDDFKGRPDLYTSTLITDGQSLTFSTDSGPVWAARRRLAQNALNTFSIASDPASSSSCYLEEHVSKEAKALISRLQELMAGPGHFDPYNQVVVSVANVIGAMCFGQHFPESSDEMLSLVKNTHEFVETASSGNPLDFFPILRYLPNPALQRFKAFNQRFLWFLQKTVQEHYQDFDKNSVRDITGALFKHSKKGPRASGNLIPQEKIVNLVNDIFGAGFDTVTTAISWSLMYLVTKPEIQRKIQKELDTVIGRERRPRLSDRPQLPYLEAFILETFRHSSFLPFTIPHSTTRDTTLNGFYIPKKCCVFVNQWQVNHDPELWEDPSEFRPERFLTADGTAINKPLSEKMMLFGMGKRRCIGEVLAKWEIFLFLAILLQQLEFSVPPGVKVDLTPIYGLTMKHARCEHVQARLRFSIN

[9] = Aqueous solubility of the compound; assay type: physicochemical; conditions: buffer
[10] = AUC in Wistar rat at 1 mg/kg, iv; assay type: ADME, organism-based; design: dose 1 mg/kg, route intravenous; conditions: plasma
[11] = Lipophilicity, log D of the compound; assay type: physicochemical; conditions: octanol/water
[12] = Cmax in Wistar rat at 5 mg/kg, po; assay type: ADME, organism-based; design: dose 5 mg/kg, route oral; conditions: in vivo
Mus musculus [13] = assay: Dose normalized Cmax in Plasmodium falciparum 3D70087/N9 infected NODscidIL2Rgamma-null mouse at 30 mg/kg, po by LC-MS/MS analysis; assay type: ADME, organism-based; design: dose 30 mg/kg, route oral; conditions: in vivo
Plasmodium falciparum [14] = assay: microbe, parasite or virus in culture; conditions: NF54, 72 h
Mus musculus [15] = assay: Dose normalized Cmax in Plasmodium falciparum 3D70087/N9 infected NODscidIL2Rgamma-null mouse at 3 mg/kg, po by LC-MS/MS analysis; assay type: ADME, organism-based; design: dose 3 mg/kg, route oral; conditions: in vivo
[16] = Fraction unbound in human plasma; assay type: ADME, cell-free
[17] = Tmax in Plasmodium falciparum 3D70087/N9 infected NODscidIL2Rgamma-null mouse at 50 mg/kg, po by LC-MS/MS analysis; assay type: ADME, organism-based; design: dose 50 mg/kg, route oral; conditions: in vivo
[18] = AUC (0 to 23 hrs) in Plasmodium falciparum 3D70087/N9 infected NODscidIL2Rgamma-null mouse at 30 mg/kg, po by LC-MS/MS analysis; assay type: ADME, organism-based; design: time < 23 hr, dose 30 mg/kg, route oral; conditions: plasma
Plasmodium falciparum [19] = assay: microbe, parasite or virus in culture; conditions: K1, 72 h
Mus musculus [20] = assay: AUC (0 to 23 hrs) in Plasmodium falciparum 3D70087/N9 infected NODscidIL2Rgamma-null mouse at 30 mg/kg, po by LC-MS/MS analysis; conditions: in vivo
[21] = Cmax in Plasmodium falciparum 3D70087/N9 infected NODscidIL2Rgamma-null mouse at 10 mg/kg, po by LC-MS/MS analysis; assay type: ADME, organism-based; design: dose 10 mg/kg, route oral; conditions: in vivo
Mus musculus [22] = assay: Dose normalized AUC (0 to 23 hrs) in Plasmodium falciparum 3D70087/N9 infected NODscidIL2Rgamma-null mouse at 3 mg/kg, po by LC-MS/MS analysis; assay type: ADME, organism-based; design: dose 3 mg/kg, route oral; conditions: in vivo
[23] = Clearance in Wistar rat at 1 mg/kg, iv; assay type: ADME, organism-based; design: dose 1 mg/kg, route intravenous; conditions: in vivo
[24] = Half life in Wistar rat at 5 mg/kg, po; assay type: ADME, organism-based; design: dose 5 mg/kg, route oral; conditions: in vivo
[25] = Cmax in Plasmodium falciparum 3D70087/N9 infected NODscidIL2Rgamma-null mouse at 3 mg/kg, po by LC-MS/MS analysis; assay type: ADME, organism-based; design: dose 3 mg/kg, route oral; conditions: in vivo
Plasmodium falciparum [26] = assay: Antiplasmodial activity against Plasmodium falciparum 3D70087/N9 infected in po dosed NODscidIL2Rgamma-null mouse assessed as reduction of parasite level in peripheral blood qd for 4 days by flow cytometry analysis; assay type: functional; conditions: 96 h
[27] = target: Voltage-gated inwardly rectifying potassium channel KCNH2 (Homo sapiens, UniProt Q12809); assay: Inhibition of human ERG
Chain of Voltage-gated inwardly rectifying potassium channel KCNH2 (Q12809 whole entry): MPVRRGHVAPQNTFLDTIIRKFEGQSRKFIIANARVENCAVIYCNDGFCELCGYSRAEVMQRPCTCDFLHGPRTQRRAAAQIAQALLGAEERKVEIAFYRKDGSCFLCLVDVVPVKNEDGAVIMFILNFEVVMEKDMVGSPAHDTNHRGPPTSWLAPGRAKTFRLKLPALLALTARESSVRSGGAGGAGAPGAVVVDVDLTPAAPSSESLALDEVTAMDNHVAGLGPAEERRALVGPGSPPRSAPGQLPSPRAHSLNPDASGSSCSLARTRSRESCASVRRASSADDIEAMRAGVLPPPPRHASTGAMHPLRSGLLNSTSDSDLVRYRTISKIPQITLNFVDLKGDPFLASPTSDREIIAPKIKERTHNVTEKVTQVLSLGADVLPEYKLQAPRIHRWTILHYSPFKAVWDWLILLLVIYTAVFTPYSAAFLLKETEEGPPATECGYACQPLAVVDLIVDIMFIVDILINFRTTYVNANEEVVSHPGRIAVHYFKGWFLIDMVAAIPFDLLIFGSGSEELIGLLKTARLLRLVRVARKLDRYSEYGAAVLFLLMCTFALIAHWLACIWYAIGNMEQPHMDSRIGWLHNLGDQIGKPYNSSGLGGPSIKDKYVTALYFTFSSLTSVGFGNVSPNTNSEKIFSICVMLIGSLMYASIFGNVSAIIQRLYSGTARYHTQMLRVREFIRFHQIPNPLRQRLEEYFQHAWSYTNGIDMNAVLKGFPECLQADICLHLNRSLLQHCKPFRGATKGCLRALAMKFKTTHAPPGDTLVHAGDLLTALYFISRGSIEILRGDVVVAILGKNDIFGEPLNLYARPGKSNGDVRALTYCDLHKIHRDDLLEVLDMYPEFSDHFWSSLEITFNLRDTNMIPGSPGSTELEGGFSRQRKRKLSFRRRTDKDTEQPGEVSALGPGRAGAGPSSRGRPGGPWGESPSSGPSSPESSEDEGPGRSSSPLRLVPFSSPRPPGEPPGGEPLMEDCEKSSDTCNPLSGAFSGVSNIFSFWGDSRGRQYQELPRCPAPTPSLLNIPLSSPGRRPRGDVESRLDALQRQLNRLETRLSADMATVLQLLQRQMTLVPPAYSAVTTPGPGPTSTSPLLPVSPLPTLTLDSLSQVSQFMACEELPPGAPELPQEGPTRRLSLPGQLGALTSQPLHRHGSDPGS

[28] = AUC (0 to 23 hrs) in Plasmodium falciparum 3D70087/N9 infected NODscidIL2Rgamma-null mouse at 10 mg/kg, po by LC-MS/MS analysis; assay type: ADME, organism-based; design: time < 23 hr, dose 10 mg/kg, route oral; conditions: plasma
[29] = AUC (0 to 23 hrs) in Plasmodium falciparum 3D70087/N9 infected NODscidIL2Rgamma-null mouse at 3 mg/kg, po by LC-MS/MS analysis; assay type: ADME, organism-based; design: time < 23 hr, dose 3 mg/kg, route oral; conditions: plasma
Mus musculus [30] = assay: AUC (0 to 23 hrs) in Plasmodium falciparum 3D70087/N9 infected NODscidIL2Rgamma-null mouse at 50 mg/kg, po by LC-MS/MS analysis; conditions: in vivo
Cytochrome P450 2D6 = Cytochrome P450 2D6 (Homo sapiens, UniProt P10635); assay: Inhibition of CYP2D6 (unknown origin); assay type: ADME
Chain of Cytochrome P450 2D6 (P10635 whole entry): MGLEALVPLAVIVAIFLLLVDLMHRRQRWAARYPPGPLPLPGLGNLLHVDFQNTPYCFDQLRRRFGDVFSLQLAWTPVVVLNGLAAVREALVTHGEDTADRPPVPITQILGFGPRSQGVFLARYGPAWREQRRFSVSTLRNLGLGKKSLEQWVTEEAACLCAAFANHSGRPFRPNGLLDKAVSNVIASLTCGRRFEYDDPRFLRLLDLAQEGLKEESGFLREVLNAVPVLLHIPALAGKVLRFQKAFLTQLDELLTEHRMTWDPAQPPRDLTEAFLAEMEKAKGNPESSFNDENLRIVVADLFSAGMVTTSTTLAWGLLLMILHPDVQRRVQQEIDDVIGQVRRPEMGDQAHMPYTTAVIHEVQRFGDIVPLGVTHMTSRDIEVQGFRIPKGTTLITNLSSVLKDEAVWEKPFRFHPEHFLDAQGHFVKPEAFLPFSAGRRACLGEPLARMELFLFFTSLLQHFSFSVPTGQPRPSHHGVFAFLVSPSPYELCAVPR

Mus musculus [31] = assay: AUC at ED90 in po dosed Plasmodium falciparum 3D70087/N9 infected NODscidIL2Rgamma-null mouse after 7 days; assay type: ADME, organism-based, Plasma; conditions: in vivo, 168 h
[32] = Clearance in mouse liver microsomes; assay type: ADME; conditions: read-out: CLH
Mus musculus [33] = assay: Dose normalized Cmax in Plasmodium falciparum 3D70087/N9 infected NODscidIL2Rgamma-null mouse at 10 mg/kg, po by LC-MS/MS analysis; assay type: ADME, organism-based; design: dose 10 mg/kg, route oral; conditions: in vivo
[34] = Cmax in Plasmodium falciparum 3D70087/N9 infected NODscidIL2Rgamma-null mouse at 30 mg/kg, po by LC-MS/MS analysis; assay type: ADME, organism-based; design: dose 30 mg/kg, route oral; conditions: in vivo
[35] = Half life in Wistar rat at 1 mg/kg, iv; assay type: ADME, organism-based; design: dose 1 mg/kg, route intravenous; conditions: in vivo
Cytochrome P450 3A4 = Cytochrome P450 3A4 (Homo sapiens, UniProt P08684); assay: Inhibition of CYP3A4 (unknown origin); assay type: ADME
Chain of Cytochrome P450 3A4 (P08684 whole entry): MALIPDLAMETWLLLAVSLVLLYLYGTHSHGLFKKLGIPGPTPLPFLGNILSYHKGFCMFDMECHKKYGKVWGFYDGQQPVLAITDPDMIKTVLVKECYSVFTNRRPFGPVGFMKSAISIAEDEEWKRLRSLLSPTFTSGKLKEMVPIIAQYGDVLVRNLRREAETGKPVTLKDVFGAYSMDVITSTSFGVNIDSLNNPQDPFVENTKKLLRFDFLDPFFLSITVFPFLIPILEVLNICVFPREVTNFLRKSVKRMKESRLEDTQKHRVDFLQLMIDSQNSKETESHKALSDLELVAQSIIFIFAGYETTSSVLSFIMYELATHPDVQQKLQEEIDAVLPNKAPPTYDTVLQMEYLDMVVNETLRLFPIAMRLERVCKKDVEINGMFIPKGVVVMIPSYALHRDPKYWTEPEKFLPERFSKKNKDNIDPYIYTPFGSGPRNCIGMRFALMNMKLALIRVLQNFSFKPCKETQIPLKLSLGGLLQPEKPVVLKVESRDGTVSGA

[36] = Volume of distribution at steady state in Wistar rat at 1 mg/kg, iv; assay type: ADME, organism-based; design: dose 1 mg/kg, route intravenous; conditions: in vivo, read-out: Vdss
[37] = Selectivity index, ratio of IC50 for human A549 cells to IC50 for Plasmodium falciparum; assay type: toxicity, cell-based; conditions: read-out: Ratio IC50
[38] = Oral bioavailability in Wistar rat at 5 mg/kg; assay type: ADME, organism-based; conditions: in vivo
Plasmodium berghei [39] = assay: Antiplasmodial activity against Plasmodium berghei ANKA expressing GFP infected in BALB/c mouse assessed as reduction of viable parasites at 50 mg/kg, po qd for 4 days by flow cytometry; assay type: functional
[40] = Tmax in Plasmodium falciparum 3D70087/N9 infected NODscidIL2Rgamma-null mouse at 30 mg/kg, po by LC-MS/MS analysis; assay type: ADME, organism-based; design: dose 30 mg/kg, route oral; conditions: in vivo
[41] = Tmax in Plasmodium falciparum 3D70087/N9 infected NODscidIL2Rgamma-null mouse at 10 mg/kg, po by LC-MS/MS analysis; assay type: ADME, organism-based; design: dose 10 mg/kg, route oral; conditions: in vivo

## CC(Oc1ccc2nc(N)n(CC(O)c3ccc(C(F)(F)F)cc3Cl)c2n1)C(F)(F)F (racemic)
[1]
  Cmax: 1.07 µg/mL
[2]
  hepatocyte CLint: 43 µL/min/1e6 cells
[3]
  microsomal CLint: 32 µL/min/mg
Cytochrome P450 2C19
  IC50: 4.7 µM
[4]
  AUC(0-t) at 23 h: 10.5 µg·h/mL
Mus musculus [5]
  AUC: 0.9 µg·h/mL
Cytochrome P450 2C9
  IC50: 22.9 µM
Plasmodium berghei [6]
  Survival: 12 days
Mus musculus [7]
  Cmax/dose: 0.021 µg/mL/mg/kg
[8]
  Tmax: 0.5 h
Cytochrome P450 1A2
  IC50: > 30 µM
[9]
  solubility: 5 µM (≈ 2.34 µg/mL)
[10]
  AUC: 1660 nM·h
[11]
  logD: > 4.5
[12]
  Cmax: 2.04 µM
Mus musculus [13]
  Cmax/dose: 0.022 µg/mL/mg/kg
Plasmodium falciparum [14]
  IC50: 0.04 µM
Mus musculus [15]
  Cmax/dose: 0.019 µg/mL/mg/kg
[16]
  fraction unbound: < 0.01
[17]
  Tmax: 4 h
[18]
  AUC(0-t) at 23 h: 6.93 µg·h/mL
Plasmodium falciparum [19]
  IC50: 0.005 µM
Mus musculus [20]
  AUC: 2.31 µg·h/mL
[21]
  Cmax: 0.36 µg/mL
Mus musculus [22]
  AUC/dose: 0.16 µg·h/mL/mg/kg
[23]
  clearance: 1.36 L/h/kg
[24]
  half-life: 7.16 h
[25]
  Cmax: 0.6 µg/mL
Plasmodium falciparum [26]
  ED90: 28.6 mg/kg
[27]
  IC50: > 33.3 µM
[28]
  AUC(0-t) at 23 h: 2.7 µg·h/mL
[29]
  AUC(0-t) at 23 h: 0.48 µg·h/mL
Mus musculus [30]
  AUC: 3.48 µg·h/mL
Cytochrome P450 2D6
  IC50: 28.3 µM
Mus musculus [31]
  AUC: 6.55 ug.hr/ml/day
[32]
  microsomal CLint: 19 µL/min/mg
Mus musculus [33]
  Cmax/dose: 0.035 µg/mL/mg/kg
[34]
  Cmax: 0.68 µg/mL
[35]
  half-life: 1.76 h
Cytochrome P450 3A4
  IC50: 20.3 µM
[36]
  Vd: 2.49 L/kg
[37]
  selectivity ratio: > 325
[38]
  bioavailability: 100%
Plasmodium berghei [39]
  Activity: 94%
[40]
  Tmax: 6 h
[41]
  Tmax: 2 h
